# Measured values: patent US7074789B2, “Kinase inhibitors” (Amgen Inc., priority 1999, dated 2006)
# Columns and labels:
# Assay type in all cases: biochemical
# [1] = target: T1, Itk (Homo sapiens, UniProt Q08881); test: Kinase inhibition assay (33P transfer), Itk; conditions: read-out: Itk-1
# T1 construct: Kinases are expressed as either kinase domains or full length constructs; made in house
# T1 sequence (Q08881 1-620): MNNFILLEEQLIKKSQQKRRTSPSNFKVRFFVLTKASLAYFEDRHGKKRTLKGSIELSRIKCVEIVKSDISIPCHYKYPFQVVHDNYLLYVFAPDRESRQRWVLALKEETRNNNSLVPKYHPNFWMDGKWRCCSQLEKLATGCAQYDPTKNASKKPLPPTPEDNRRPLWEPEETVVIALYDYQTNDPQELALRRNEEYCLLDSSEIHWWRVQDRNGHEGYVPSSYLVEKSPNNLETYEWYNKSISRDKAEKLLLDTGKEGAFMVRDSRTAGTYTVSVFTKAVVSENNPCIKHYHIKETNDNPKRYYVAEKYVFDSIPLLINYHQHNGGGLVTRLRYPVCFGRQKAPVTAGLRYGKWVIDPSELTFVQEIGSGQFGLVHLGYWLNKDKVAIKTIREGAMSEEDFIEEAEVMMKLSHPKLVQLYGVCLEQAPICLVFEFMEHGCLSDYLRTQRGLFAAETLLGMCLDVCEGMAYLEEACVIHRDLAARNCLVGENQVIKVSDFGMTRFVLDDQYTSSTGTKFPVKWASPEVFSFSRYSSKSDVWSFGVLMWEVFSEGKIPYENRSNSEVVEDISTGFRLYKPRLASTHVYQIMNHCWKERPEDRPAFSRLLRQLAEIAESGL
# Summary of the method: (§1)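 Radiometric format: recombinant tagged kinase (catalytic domain or whole protein, sometimes combined with regulatory polypeptides) phosphorylates immobilised poly(Glu,Tyr) 4:1 or poly(Arg,Ser) 3:1 using [33P]ATP. Wells are washed in 0.5% phosphoric acid, then counted. IC50 is taken where substrate labelling falls by half.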
# [2] = target: T2, Zap-70 (Homo sapiens, UniProt P43403); test: Kinase inhibition assay (33P transfer), Zap-70; conditions: read-out: Zap-1
# T2 construct: Kinases are expressed as either kinase domains or full length constructs; made in house
# T2 sequence (P43403 1-619): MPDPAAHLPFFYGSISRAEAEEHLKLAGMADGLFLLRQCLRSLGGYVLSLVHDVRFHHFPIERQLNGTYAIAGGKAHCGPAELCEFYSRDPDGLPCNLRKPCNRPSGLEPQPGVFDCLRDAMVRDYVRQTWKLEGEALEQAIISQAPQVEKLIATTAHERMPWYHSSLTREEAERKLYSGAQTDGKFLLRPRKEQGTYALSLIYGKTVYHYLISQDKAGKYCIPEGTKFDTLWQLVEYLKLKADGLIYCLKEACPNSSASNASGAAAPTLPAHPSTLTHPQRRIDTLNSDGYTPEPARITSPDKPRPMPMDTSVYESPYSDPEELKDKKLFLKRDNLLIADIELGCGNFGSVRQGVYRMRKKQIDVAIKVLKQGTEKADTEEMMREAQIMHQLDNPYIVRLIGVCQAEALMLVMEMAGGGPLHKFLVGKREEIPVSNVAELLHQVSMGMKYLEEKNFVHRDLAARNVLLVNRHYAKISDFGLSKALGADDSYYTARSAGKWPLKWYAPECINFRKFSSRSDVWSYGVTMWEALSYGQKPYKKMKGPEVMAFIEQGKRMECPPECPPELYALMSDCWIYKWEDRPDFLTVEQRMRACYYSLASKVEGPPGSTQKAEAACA
# Summary of the method: (§2)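 Steps: express kinase as GST or polyHistidine fusion in E. coli or High Five cells; optionally co-express or mix with regulatory polypeptides; incubate with 33P-ATP and plate-attached poly(Glu,Tyr) 4:1 or poly(Arg,Ser) 3:1; wash with 0.5% phosphoric acid; count by liquid scintillation.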
# [3] = target: T3, EGFR (Homo sapiens, UniProt P00533); test: Kinase inhibition assay (33P transfer), EGFR; conditions: Table 2, kinase inhibition class; read-out: EGFR-1
# T3 construct: Kinases are expressed as either kinase domains or full length constructs; made in house
# Summary of the method: as §1
# [4] = target: T4, Kdr (Homo sapiens, UniProt P35968); test: Kinase inhibition assay (33P transfer), Kdr; conditions: read-out: KDR-1
# T4 construct: Kinases are expressed as either kinase domains or full length constructs; made in house
# Summary of the method: as §2
# [5] = target: T5, IGFR-1 (Homo sapiens, UniProt P08069); test: Kinase inhibition assay, IGFR-1 (Table 2); conditions: Table 2, kinase inhibition class
# T5 construct: Kinases are expressed as either kinase domains or full length constructs; made in house
# [6] = target: T6, ErbB2 (Homo sapiens, UniProt P04626); test: Kinase inhibition assay (33P transfer), ErbB2; conditions: read-out: ErbB2-2
# T6 construct: Kinases are expressed as either kinase domains or full length constructs; made in house
# Summary of the method: as §1
# [7] = target: T7, PDGFRB (Homo sapiens, UniProt P09619); test: Kinase inhibition assay (33P transfer), PDGFRB; conditions: read-out: PDGFRB-1
# T7 construct: Kinases are expressed as either kinase domains or full length constructs; made in house
# [8] = target: T8, Lck (Homo sapiens, UniProt P06239); test: Kinase inhibition assay (33P transfer), Lck; conditions: read-out: Lck-1
# T8 construct: Kinases are expressed as either kinase domains or full length constructs; made in house
# Summary of the method: as §2
# [9] = target: T9, AKT (Homo sapiens, UniProt Q9Y243); test: Kinase inhibition assay (33P transfer), AKT; conditions: Table 2, kinase inhibition class; read-out: AKT3-1
# T9 construct: Kinases are expressed as either kinase domains or full length constructs; made in house
# Summary of the method: as §2
# [10] = target: T10, c-Met (Homo sapiens, UniProt P08581); test: Kinase inhibition assay (33P transfer), c-Met; conditions: Table 2, kinase inhibition class; read-out: Met-1
# T10 construct: Kinases are expressed as either kinase domains or full length constructs; made in house
# Summary of the method: as §1
# T5 sequence (P08069 31-1367): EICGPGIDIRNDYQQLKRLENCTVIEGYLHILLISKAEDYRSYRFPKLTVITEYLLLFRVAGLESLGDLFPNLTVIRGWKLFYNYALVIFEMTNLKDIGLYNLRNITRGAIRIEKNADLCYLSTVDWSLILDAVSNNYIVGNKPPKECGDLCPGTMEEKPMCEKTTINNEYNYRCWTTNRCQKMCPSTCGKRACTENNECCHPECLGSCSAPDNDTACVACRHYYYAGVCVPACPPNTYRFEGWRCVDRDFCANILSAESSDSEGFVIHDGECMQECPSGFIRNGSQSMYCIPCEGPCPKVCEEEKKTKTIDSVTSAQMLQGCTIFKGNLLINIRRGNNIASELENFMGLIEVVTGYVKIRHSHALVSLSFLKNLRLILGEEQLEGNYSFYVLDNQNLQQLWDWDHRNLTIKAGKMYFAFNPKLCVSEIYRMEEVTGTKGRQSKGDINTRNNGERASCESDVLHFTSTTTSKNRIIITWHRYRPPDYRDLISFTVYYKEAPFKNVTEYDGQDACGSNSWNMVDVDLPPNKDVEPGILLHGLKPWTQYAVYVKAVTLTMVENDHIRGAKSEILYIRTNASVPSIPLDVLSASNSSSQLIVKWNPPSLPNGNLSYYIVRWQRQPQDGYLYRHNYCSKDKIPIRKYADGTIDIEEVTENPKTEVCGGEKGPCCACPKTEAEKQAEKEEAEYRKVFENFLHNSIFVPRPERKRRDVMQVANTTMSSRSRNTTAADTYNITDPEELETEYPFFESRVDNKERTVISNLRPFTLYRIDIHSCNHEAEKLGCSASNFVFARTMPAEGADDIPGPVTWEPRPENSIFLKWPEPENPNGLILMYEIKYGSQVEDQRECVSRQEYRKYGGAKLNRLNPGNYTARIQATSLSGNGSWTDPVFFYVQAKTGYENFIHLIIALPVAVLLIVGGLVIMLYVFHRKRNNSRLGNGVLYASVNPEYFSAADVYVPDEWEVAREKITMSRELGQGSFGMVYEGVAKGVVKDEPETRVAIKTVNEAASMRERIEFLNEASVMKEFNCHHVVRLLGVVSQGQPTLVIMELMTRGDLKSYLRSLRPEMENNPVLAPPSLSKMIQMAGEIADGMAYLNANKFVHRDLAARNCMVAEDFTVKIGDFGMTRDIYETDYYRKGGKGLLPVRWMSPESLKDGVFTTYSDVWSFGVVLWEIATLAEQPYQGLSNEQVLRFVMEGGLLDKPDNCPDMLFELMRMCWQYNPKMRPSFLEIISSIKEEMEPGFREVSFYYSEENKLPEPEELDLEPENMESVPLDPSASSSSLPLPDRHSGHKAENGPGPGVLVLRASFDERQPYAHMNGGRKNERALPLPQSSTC
# T10 sequence (P08581 25-1390): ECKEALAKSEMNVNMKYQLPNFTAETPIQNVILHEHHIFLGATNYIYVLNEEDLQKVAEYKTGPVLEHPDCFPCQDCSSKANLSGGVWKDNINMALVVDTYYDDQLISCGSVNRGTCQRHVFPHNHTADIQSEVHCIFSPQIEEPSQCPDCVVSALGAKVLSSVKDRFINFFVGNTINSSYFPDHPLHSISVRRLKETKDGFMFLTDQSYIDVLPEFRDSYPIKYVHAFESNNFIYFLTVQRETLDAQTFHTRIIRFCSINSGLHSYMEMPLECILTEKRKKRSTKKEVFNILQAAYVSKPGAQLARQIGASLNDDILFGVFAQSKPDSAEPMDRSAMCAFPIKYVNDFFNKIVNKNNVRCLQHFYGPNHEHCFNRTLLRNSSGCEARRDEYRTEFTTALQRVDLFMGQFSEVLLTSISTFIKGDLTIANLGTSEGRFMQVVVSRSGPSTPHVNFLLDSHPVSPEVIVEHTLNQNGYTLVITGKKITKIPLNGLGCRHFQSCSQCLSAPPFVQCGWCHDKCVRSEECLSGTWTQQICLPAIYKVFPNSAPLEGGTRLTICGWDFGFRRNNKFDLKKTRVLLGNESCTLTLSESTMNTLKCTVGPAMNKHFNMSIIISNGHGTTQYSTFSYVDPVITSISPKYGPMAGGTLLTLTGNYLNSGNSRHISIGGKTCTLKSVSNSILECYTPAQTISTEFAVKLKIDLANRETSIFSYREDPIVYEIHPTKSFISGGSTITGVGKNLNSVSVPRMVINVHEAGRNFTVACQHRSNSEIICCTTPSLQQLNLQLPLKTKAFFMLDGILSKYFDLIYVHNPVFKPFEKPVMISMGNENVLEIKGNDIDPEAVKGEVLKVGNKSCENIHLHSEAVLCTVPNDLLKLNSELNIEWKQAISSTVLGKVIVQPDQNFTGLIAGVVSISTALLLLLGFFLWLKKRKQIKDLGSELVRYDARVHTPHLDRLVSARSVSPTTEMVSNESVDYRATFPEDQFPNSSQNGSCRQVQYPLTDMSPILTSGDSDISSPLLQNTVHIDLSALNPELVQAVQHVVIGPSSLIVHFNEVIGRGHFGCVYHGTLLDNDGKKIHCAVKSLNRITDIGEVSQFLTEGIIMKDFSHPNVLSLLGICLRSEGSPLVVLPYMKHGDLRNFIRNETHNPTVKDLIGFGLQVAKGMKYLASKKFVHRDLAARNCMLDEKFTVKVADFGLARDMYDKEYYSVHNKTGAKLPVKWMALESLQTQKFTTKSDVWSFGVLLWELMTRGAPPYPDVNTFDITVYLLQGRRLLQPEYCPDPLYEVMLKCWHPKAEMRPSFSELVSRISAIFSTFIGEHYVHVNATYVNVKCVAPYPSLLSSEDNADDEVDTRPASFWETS
# T3 sequence (P00533 25-1210, species assumed): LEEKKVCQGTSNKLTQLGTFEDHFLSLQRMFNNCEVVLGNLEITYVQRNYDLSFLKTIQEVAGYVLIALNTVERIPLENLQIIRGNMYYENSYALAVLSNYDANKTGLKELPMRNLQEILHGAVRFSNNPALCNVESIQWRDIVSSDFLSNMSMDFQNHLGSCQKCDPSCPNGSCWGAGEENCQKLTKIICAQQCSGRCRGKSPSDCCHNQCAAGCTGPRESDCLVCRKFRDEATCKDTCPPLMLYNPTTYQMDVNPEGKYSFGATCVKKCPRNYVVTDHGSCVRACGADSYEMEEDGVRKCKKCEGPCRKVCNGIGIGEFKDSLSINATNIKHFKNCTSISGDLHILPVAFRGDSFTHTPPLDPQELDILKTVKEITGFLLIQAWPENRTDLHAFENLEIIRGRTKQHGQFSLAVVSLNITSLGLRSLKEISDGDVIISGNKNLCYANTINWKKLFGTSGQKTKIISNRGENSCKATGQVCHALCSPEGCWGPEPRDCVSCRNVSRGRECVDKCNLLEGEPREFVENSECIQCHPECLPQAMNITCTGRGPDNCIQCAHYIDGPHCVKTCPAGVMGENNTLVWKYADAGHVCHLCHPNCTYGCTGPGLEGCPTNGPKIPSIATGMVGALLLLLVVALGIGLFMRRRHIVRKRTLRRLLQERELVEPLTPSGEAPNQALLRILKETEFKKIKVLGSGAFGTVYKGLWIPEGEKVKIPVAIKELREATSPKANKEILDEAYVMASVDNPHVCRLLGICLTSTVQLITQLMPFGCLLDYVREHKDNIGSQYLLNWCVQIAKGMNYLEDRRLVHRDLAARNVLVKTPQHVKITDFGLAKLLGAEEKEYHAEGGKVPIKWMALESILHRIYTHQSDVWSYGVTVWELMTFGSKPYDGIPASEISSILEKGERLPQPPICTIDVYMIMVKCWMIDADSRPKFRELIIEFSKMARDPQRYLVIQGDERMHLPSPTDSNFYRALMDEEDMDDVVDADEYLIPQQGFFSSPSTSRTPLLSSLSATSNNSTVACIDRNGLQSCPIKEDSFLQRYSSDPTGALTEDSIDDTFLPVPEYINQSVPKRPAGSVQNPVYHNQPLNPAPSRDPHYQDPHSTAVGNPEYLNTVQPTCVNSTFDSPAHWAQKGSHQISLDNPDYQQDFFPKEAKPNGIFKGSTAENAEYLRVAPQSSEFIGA
# T6 sequence (P04626 23-1255, species assumed): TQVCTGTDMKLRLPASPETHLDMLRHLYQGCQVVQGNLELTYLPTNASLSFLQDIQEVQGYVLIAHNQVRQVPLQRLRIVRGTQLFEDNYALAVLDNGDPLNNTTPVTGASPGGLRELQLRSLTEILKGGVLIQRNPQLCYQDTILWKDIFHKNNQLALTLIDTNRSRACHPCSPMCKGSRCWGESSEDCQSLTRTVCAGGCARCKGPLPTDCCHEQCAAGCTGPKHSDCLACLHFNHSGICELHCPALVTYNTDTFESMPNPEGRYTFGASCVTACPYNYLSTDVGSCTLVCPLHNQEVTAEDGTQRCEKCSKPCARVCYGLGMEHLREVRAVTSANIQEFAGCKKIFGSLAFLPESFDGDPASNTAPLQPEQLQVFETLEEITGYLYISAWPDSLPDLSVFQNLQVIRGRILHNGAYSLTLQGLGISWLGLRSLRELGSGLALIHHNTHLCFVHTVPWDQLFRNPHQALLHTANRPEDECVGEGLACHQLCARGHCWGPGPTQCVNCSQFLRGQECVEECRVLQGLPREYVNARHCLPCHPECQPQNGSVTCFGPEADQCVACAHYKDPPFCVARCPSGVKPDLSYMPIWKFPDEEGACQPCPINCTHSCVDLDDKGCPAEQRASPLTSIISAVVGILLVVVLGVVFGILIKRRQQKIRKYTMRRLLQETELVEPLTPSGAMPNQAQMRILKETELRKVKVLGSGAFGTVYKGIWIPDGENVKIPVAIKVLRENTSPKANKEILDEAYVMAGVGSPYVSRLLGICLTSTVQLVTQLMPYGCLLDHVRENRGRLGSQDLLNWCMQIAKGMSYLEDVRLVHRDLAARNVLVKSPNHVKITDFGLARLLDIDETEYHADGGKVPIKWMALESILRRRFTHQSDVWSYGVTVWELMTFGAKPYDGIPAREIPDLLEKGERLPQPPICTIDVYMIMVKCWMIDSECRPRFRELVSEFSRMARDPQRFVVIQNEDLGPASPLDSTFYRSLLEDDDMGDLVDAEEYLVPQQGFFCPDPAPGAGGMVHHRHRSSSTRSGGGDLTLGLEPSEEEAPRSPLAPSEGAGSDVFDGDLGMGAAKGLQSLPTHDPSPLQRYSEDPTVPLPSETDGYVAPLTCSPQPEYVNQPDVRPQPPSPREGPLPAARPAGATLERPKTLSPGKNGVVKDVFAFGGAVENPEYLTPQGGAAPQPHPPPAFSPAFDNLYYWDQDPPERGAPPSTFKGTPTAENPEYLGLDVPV
Structure (SMILES),IC50 [1],IC50 [2],IC50 [3],IC50 [4],IC50 [5],IC50 [6],IC50 [7],IC50 [8],IC50 [9],IC50 [10]
COc1cc(Nc2ncnc(-n3c(Nc4cccc5cccnc45)nc4ccccc43)n2)cc(OC)c1OC [Compound 588],> 8.64 µM,> 8.64 µM,> 8.64 µM,4.61 to 6.72 µM,6.72 to 8.64 µM,0.768 to 4.61 µM,0.768 to 4.61 µM,> 8.64 µM,> 8.64 µM,> 8.64 µM
CN(C)CCNc1ncnc(Nc2ccc3c(cnn3Cc3ccccc3)c2)n1 [Compound 733],> 11.6 µM,> 11.6 µM,1.03 to 6.18 µM,> 11.6 µM,> 11.6 µM,> 11.6 µM,> 11.6 µM,> 11.6 µM,> 11.6 µM,> 11.6 µM
COc1cc(Nc2ncnc(NC3CC3c3ccccc3)n2)cc(OC)c1OCCN1CCOCC1 (centres unmarked) [Compound 563],> 9.14 µM,> 9.14 µM,< 0.812 µM,0.812 to 4.87 µM,0.812 to 4.87 µM,0.812 to 4.87 µM,0.812 to 4.87 µM,< 0.812 µM,> 9.14 µM,4.87 to 7.11 µM
COc1ccc([C@@H](C)Nc2nc3ccccc3n2-c2ncnc(Nc3cc(OC)c(OC)c(OC)c3)n2)cc1 [Compound 1045],> 8.53 µM,> 8.53 µM,> 8.53 µM,0.758 to 4.55 µM,> 8.53 µM,> 8.53 µM,0.758 to 4.55 µM,0.758 to 4.55 µM,> 8.53 µM,> 8.53 µM
CCN1CCCC1CNc1ncnc(Nc2ccc(OC)c(OC)c2)n1 (centres unmarked) [Compound 781],> 12.6 µM,> 12.6 µM,> 12.6 µM,> 12.6 µM,> 12.6 µM,> 12.6 µM,1.12 to 6.7 µM,> 12.6 µM,> 12.6 µM,> 12.6 µM
c1ccc(Cn2ncc3cc(Nc4ncnc(Nc5cc(-c6ccccc6)[nH]n5)n4)ccc32)cc1 [Compound 737],0.87 to 5.22 µM,7.62 to 9.79 µM,0.87 to 5.22 µM,0.87 to 5.22 µM,0.87 to 5.22 µM,0.87 to 5.22 µM,5.22 to 7.62 µM,5.22 to 7.62 µM,7.62 to 9.79 µM,5.22 to 7.62 µM
COc1cc(Nc2ncnc(-n3c(NCc4ccc5c(c4)OCO5)nc4ccccc43)n2)cc(OC)c1OC [Compound 595],> 8.53 µM,> 8.53 µM,> 8.53 µM,0.758 to 4.55 µM,> 8.53 µM,0.758 to 4.55 µM,6.63 to 8.53 µM,6.63 to 8.53 µM,4.55 to 6.63 µM,> 8.53 µM
COc1cc(Nc2ncnc(-c3cccnc3NCc3ccc(F)cc3)n2)cc(OC)c1OCCN1CCOCC1 [Compound 564],> 8.01 µM,> 8.01 µM,4.27 to 6.23 µM,< 0.712 µM,> 8.01 µM,> 8.01 µM,< 0.712 µM,< 0.712 µM,> 8.01 µM,> 8.01 µM
Cc1ccc2c(c1)CCCN2c1ncnc(Nc2ccc3c(c2)C(=O)OC3)n1 [Compound 763],> 12.1 µM,> 12.1 µM,< 1.07 µM,1.07 to 6.43 µM,> 12.1 µM,1.07 to 6.43 µM,6.43 to 9.37 µM,6.43 to 9.37 µM,> 12.1 µM,1.07 to 6.43 µM
COc1ccc(Nc2ncnc(NC[C@@H]3CCCO3)n2)cc1OC [Compound 790],> 13.6 µM,> 13.6 µM,> 13.6 µM,> 13.6 µM,> 13.6 µM,1.21 to 7.24 µM,10.6 to 13.6 µM,> 13.6 µM,> 13.6 µM,> 13.6 µM
Cc1cccc(Nc2ncnc(N(C)c3cccc(Cl)c3)n2)c1 [Compound 709],> 13.8 µM,> 13.8 µM,< 1.23 µM,> 13.8 µM,> 13.8 µM,1.23 to 7.37 µM,7.37 to 10.7 µM,7.37 to 10.7 µM,> 13.8 µM,1.23 to 7.37 µM
CN(c1cccc(Cl)c1)c1ncnc(Nc2ccc(C(F)(F)F)cc2)n1 [Compound 744],> 11.8 µM,> 11.8 µM,1.05 to 6.32 µM,> 11.8 µM,> 11.8 µM,> 11.8 µM,> 11.8 µM,> 11.8 µM,> 11.8 µM,> 11.8 µM
COc1cc(Nc2ncnc(Oc3ccc(OCc4ccccc4)cc3)n2)cc(OC)c1OC [Compound 530],> 9.77 µM,> 9.77 µM,> 9.77 µM,> 9.77 µM,> 9.77 µM,> 9.77 µM,> 9.77 µM,> 9.77 µM,> 9.77 µM,> 9.77 µM
COc1cc(Nc2ncnc(-n3c(NC4CCCc5ccccc54)nc4ccccc43)n2)cc(OC)c1OC (centres unmarked) [Compound 1043],> 8.59 µM,> 8.59 µM,6.68 to 8.59 µM,0.764 to 4.58 µM,6.68 to 8.59 µM,0.764 to 4.58 µM,4.58 to 6.68 µM,4.58 to 6.68 µM,> 8.59 µM,> 8.59 µM
